Data taken from article PMC4412285, “Broadening the repertoire of melanoma-associated T-cell epitopes” (Cancer Immunology, Immunotherapy : CII, 2015).

What was measured:
Assay type in all cases: cell-based, human
CD8 T cells [1] = assay: MHC multimer-based enrichment of PBMCs from melanoma patients and detection with combinatorial-encoded MHC multimers
Procedure, shortened: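 PBMCs enriched with pooled PE-labelled peptide-MHC multimers (0.1 μg/specificity, 1 h, 4 °C) and anti-PE magnetic beads, then expanded 2–3 weeks with irradiated feeders, CD3/CD28 beads, IL-2 (100 IU/ml) and IL-15 (23.8 IU/ml). Specific CD8 T cells detected by flow cytometry with dual-colour combinatorial-encoded MHC multimers; responses confirmed in a second colour combination.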

CD8 T cells [2] = assay: MHC multimer-based enrichment of PBMCs from healthy donors and detection with combinatorial-encoded MHC multimers; set-up: key: T-cell specificities also detected in the healthy donor cohort; settings: 10 healthy donors, HLA restriction as in Table 1
Method: Peptide-MHC monomers were multimerized with phycoerythrin (PE)-streptavidin (Biolegend, Nordic Biosite, Copenhagen, Denmark) for MHC multimer-based T-cell enrichment. Briefly, the cells were thawed in 11 ml of RPMI, 10 % FCS (R10) (both from Gibco, Life Technologies, Naerum, Denmark), 25 U/ml DNase (Invitrogen, Life Technologies, Naerum, Denmark) and 2.27 mM MgCl2 (Apoteket, Herlev University Hospital, Herlev, Denmark). 1 ml of the cell suspension was irradiated at 25 Gy, washed twice and used as feeder cells. The remaining cells were resuspended in 100 μl R10, pooled PE-coupled MHC multimers were added (0.1 μg/specificity based on MHC complex alone) and the mixture was incubated at 4 °C for 1 h. After careful washing, 20 μl of α-PE beads (Dynabeads Magnetic Beads, Life Technologies, Naerum, Denmark) were added and the cells were left at 4 °C for 15 min, washed, resuspended in 500 μl R10 and applied to MS separation columns (Miltenyi Biotec, Bergisch Gladbach, Germany) according to the manufacturer’s instructions. The trapped cells were flushed out, counted and cultured at 37 °C and 5 % CO2, in a 96-well plate (Corning Costar, BD Biosciences, Albertslund, Denmark); each well contained 5,000 positive fraction cells; 50,000 irradiated feeder cells; 11,000 CD3/CD28 activation beads (Dynabeads® Human T-Activator CD3/CD28 for T-cell Expansion and Activation, Life Technologies, Naerum, Denmark); IL-2 (100 IU/ml, Proleukin, Novartis Healthcare, Copenhagen, Denmark) and IL-15 (23.8 IU/ml, Peprotech Nordic, Stockholm, Sweden). The medium was refreshed every 1–3 days.
After 2–3 weeks of culturing, we tested the cultures for T-cell populations recognizing the peptide-MHC complexes used for enrichment via staining with combinatorial-encoded MHC multimers, as described. In short, MHC monomers were multimerized with two different streptavidin conjugates for each peptide specificity, enabling the simultaneous testing of 36 different specificities in a single sample by combining nine colors into dual-color codes for MHC multimers, in order to measure specific T-cell populations with flow cytometry. The cells were additionally stained with LIVE/DEAD® Fixable Near-IR Dead Cell Stain Kit for 633 or 635 nm excitation (Invitrogen, Life Technologies, Naerum, Denmark), CD8-Alexa Flour 700 (BD Pharmingen, Albertslund, Denmark) or CD8-peridinin chlorophyll (PerCP) (Invitrogen, Life Technologies, Naerum, Denmark) and fluorescein isothiocyanate (FITC) coupled antibodies to CD3 or to a panel of CD4, CD14, CD16, CD19 (all from BD Pharmingen, Albertslund, Denmark) and CD40 (AbD Serotec, Puchheim, Germany). […] The data were acquired on an LSR II flow cytometer, and the gating strategy is provided in Supplementary Figure 2. […]

[3] = test system: tumor-infiltrating lymphocyte (TIL) cultures; assay: MHC multimer screening of melanoma TIL cultures; settings: HLA-A3; responses / HLA-A3+ TIL cultures of 30 melanoma patients

LIYRRRLMK
Sum of MHC multimer-specific T cells compared with mean frequency in the healthy donor cohort + 3*standard deviation (CD8 T cells [1]; Fig. 2e, patient cohort versus healthy donor cohort): higher frequency in the patient cohort | Frequency of MHC multimer-specific T cells (CD8 T cells [1]; HLA-A3, of 270,000 CD8 cells, PE/BV421 MHC multimer combination, PBMCs after PE-MHC multimer-based enrichment (Fig. 2a)): 0.004% | Frequency of MHC multimer-specific T cells (CD8 T cells [1]; HLA-A3, of 510,000 CD8 cells, PE/APC MHC multimer combination, confirmation staining (Fig. 2b)): 0.004% | Detection rate of T-cell responses, percent of tested patients (CD8 T cells [1]; HLA-A3 positive melanoma patients): 21% | Frequency of MHC multimer-specific T cells (CD8 T cells [1]; HLA-A3 restricted, representative dot plot, PBMCs after enrichment (Supplementary Figure 3)): 0.044 % of CD8 cells | Detection rate of T-cell responses (CD8 T cells [1]; HLA-A3 restricted, responding / tested HLA-A3 melanoma patients, PBMCs after MHC multimer-based enrichment, 2-3 weeks culture): 3/14 | T-cell specificity detected in the healthy donor cohort (CD8 T cells [2]): a | Detection of T-cell responses in TIL cultures [3]: 0/16
